Assay results taken from PubChem BioAssay (NCI).
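Cells were grown in 96-well plates and exposed to each compound for 48 hours at five concentrations; endpoints were interpolated linearly between bracketing concentrations, or set to the highest concentration if not reached. GI50 = concentration required for 50% inhibition of growth. At the TGI there is no net growth.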

Legend:
Experiment in all cases: NCI anticancer screen, dose series, 48 h
[1] = tested on: COLO 205 colon
[2] = tested on: MALME-3M melanoma
[3] = tested on: HT29 colon
[4] = tested on: OVCAR-5 ovarian
[5] = tested on: SNB-75 CNS
[6] = tested on: RPMI-8226 leukemia
[7] = tested on: A498 renal
[8] = tested on: CCRF-CEM leukemia
[9] = tested on: IGROV1 ovarian
[10] = tested on: UACC-257 melanoma

| SMILES | GI50 [1] | TGI [1] | GI50 [2] | TGI [2] | GI50 [3] | TGI [3] | GI50 [4] | TGI [4] | GI50 [5] | TGI [5] | GI50 [6] | TGI [6] | GI50 [7] | TGI [7] | GI50 [8] | TGI [8] | GI50 [9] | TGI [9] | TGI [10] | GI50 [10] |
| --- | --- | --- | --- | --- | --- | --- | --- | --- | --- | --- | --- | --- | --- | --- | --- | --- | --- | --- | --- | --- |
| O=[N+]([O-])c1ccc(C=C2C(Cl)=C(Cl)C(Cl)=C2Cl)cc1 | 3.2 µM | > 100 µM | 2.59 µM | 9.26 µM | 2.64 µM | 7.14 µM | 3.3 µM | > 100 µM | 2.05 µM | 6.98 µM | 1.84 µM | 5.16 µM | 5.13 µM | 26.6 µM | 2.21 µM | 6.57 µM | 2 µM | 4.41 µM |  |  |
| Cc1cc(=O)[nH]c(NN2C(Cl)C(=O)C2c2cccc(O)c2)n1 (configuration not stated) |  | > 100 µM |  |  |  | > 100 µM |  | > 100 µM |  | 6.73 µM |  | > 100 µM |  |  |  | > 100 µM |  | > 100 µM | > 100 µM |  |
| COc1ccc(C2CC(c3cccc(Nc4ccncc4)c3)=NN2c2cc(Cl)cc(Cl)c2)cc1 (configuration not stated) |  |  |  |  | 2.26 µM | 5.46 µM | 2.23 µM | 5.19 µM | 2.09 µM | 11.7 µM |  |  | 3.06 µM | 18 µM | 2.81 µM | > 100 µM | 1.69 µM | 3.35 µM | 4.92 µM | 2.16 µM |
| Cc1ccc2c(n1)C(=O)c1[nH]c3ccccc3c1C2=O | 1.89 µM | 4.14 µM | 0.208 µM | 1.07 µM | 3.05 µM | > 100 µM | 2.11 µM | 4.54 µM |  |  | 2.25 µM | 12.3 µM | 1.38 µM | 2.76 µM | 3.45 µM | > 100 µM | 0.0819 µM | 4.3 µM | 2.05 µM | 0.513 µM |
| c1ccc(N=C2SC(=NC3CCCCC3)N(C3CCCCC3)C2=Nc2ccccc2)cc1 |  | > 100 µM |  | > 100 µM |  | > 100 µM |  | > 100 µM |  | > 100 µM |  | > 100 µM |  | > 100 µM |  | > 100 µM |  | > 100 µM |  |  |
| CC(=O)OC1CCC2(C)C3CCC4(C)C(c5ccc(=O)oc5)CC5OC54C3CCC2(O)C1 (configuration not stated) |  | 10.3 µM |  | 3.21 µM |  | 16.1 µM |  | 22.4 µM |  | 5.77 µM |  | 14.1 µM |  | 15.1 µM |  | 2.7 µM |  | 21 µM | 19.5 µM |  |
| Cc1nc(N)sc1-c1ccnc(Nc2ccc(N3CCOCC3)cc2)n1 | 0.488 µM | > 100 µM |  | > 65 µM | 2.11 µM | > 100 µM |  |  | 1.38 µM | 5.57 µM | 1.66 µM | > 38.3 µM | 0.731 µM | 2.07 µM | 1.16 µM | > 100 µM | 0.846 µM | > 33.7 µM | > 100 µM |  |
| CCC[CH2][Ge]([CH2]CCC)([CH2]CCC)[O]C(=O)CC(=O)c1ccccc1 | 1.55 µM | 13.3 µM | 1.47 µM | 13 µM | 0.64 µM | 11.1 µM | 2.17 µM | 14.9 µM |  |  | 0.959 µM | > 100 µM |  |  | 0.266 µM | 10.6 µM | 2.2 µM | 13.9 µM |  |  |
| O=C(OC(=O)n1ccc2ccccc21)n1ccc2ccccc21 |  | > 100 µM |  |  |  | > 100 µM |  | > 100 µM |  | > 100 µM |  | > 100 µM |  | > 100 µM |  | > 100 µM |  | > 100 µM | > 100 µM |  |
| O=NN(CCCl)C(=O)NC1CCSc2ccccc21 (configuration not stated) |  | > 100 µM |  | > 100 µM |  | > 100 µM |  | > 100 µM |  | > 100 µM |  | > 100 µM |  | > 100 µM |  | > 100 µM |  | > 100 µM | > 100 µM |  |
| COc1ccccc1C1C(C(=O)O)=C(CO)Oc2cc3c(cc21)OCO3 (configuration not stated) |  | > 100 µM |  | > 100 µM |  | > 100 µM |  |  |  | > 100 µM |  | > 100 µM |  | > 100 µM |  | > 100 µM |  | > 100 µM |  |  |
| NCCCNc1nc2ccccc2c2c(=O)c3cc(OC(F)(F)F)ccc3sc12 |  |  | 1.57 µM | 3.08 µM |  |  | 1.64 µM | 3.07 µM | 1.39 µM | 2.73 µM |  |  |  |  |  |  | 1.46 µM | 2.9 µM |  |  |
| CC1CC=CC(O)C1 (configuration not stated) |  | > 100 µM |  | > 100 µM |  | > 100 µM |  | > 100 µM |  | > 100 µM |  | > 100 µM |  | > 100 µM |  | > 100 µM |  | > 100 µM | > 100 µM |  |
| CC(=O)Oc1cccc2c(/C=N/NC(N)=S)ncc(C)c12 |  | > 41 µM |  | 42.7 µM |  | 21.8 µM |  | 22 µM |  | > 55.6 µM |  | 24.5 µM |  | 29.2 µM |  | > 100 µM |  | 20.9 µM | > 41.2 µM |  |
| NC(Cc1cccc([N+](=O)[O-])c1)C(=O)O (configuration not stated) |  | > 100 µM |  | > 100 µM |  | > 100 µM |  | > 100 µM |  |  |  | > 100 µM |  | > 100 µM |  | > 100 µM |  | > 100 µM | > 100 µM |  |
| NC(CCCCP(=O)(O)O)C(=O)O (configuration not stated) |  | > 100 µM |  |  |  | > 100 µM |  | > 100 µM |  | > 100 µM |  | > 100 µM |  |  |  | > 100 µM |  | > 100 µM | > 100 µM |  |
| NNC(N)Nc1ccccc1 (configuration not stated) |  | > 100 µM |  | > 100 µM |  | > 100 µM |  | > 100 µM |  |  |  |  |  | > 100 µM |  | > 100 µM |  | > 100 µM | > 100 µM |  |
